Test results as given in patent US10479819B2 (priority 2014, dated 2019).
Starred links: 1 amine or outer side, 2 acyl side, 3 side chain; linkers in the order of their positions; H or OH if unused. Non-standard residues stand in square brackets, D forms with d. Residues, ends and D or L forms follow the SMILES beside them. Groups on a side chain read outwards from the residue. *: point of attachment. C18 diacid = O=C(O)CCCCCCCCCCCCCCCCC(=O)*; γGlu = O=C(O)[C@H](CCC(=O)[*:2])N[*:1]; PEG2 = NCCOCCOCCC(=O)O; Aib = CC(C)(N)C(=O)O

Molecular target: T1, human GLP-1R (Homo sapiens, UniProt P43220)
T1 construct: expressed in transfected cells
T1 sequence (P43220 24-463): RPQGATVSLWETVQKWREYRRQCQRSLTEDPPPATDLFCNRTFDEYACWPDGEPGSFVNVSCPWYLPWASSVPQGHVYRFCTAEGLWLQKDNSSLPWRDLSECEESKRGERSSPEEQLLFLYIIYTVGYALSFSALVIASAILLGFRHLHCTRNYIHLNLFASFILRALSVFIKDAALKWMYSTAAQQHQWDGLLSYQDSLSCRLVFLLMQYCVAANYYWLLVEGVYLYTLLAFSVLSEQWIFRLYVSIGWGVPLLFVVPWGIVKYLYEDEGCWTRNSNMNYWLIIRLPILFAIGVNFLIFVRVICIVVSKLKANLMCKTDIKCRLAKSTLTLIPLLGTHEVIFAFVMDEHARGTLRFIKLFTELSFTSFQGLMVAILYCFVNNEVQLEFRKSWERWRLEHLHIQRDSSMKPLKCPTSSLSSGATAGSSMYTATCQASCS
Assay: In vitro activity on GLP-1R, CRE-luciferase HEK-293 cells
Format: cell-based
Settings: ratio of EC50 GLP-1R to EC50 GCGR
Experimental: 5000 of HEK-293 cells, which are used in CRE-luciferase system and express human GCGR or GLP-1R stably, were inoculated into 384 well plates according to […] DMEM/10% FBS media/well. […] After incubation, […] of luciferase reagent was added directly to each plate and mixed gently for 2 minutes. The plates were placed into an Elmer Perkin plate reader for reading. Concentration curve of the compound was made by drawing software Prism 5, and the EC50 value was calculated.

Q: For `CC(C)C[C@H](NC(=O)[C@H](CC(C)C)NC(=O)[C@H](Cc1c[nH]c2ccccc12)NC(=O)[C@H](CCC(=O)O)NC(=O)[C@@H](NC(=O)[C@H](Cc1ccccc1)NC(=O)[C@H](CC(=O)O)NC(=O)[C@H](Cc1c[nH]cn1)NC(=O)[C@H](C)NC(=O)[C@H](C)NC(=O)[C@H](CCCCNC(=O)CCOCCOCCNC(=O)CCOCCOCCNC(=O)CC[C@H](NC(=O)CCCCCCCCCCCCCCCCC(=O)O)C(=O)O)NC(=O)[C@H](CO)NC(=O)[C@H](CC(=O)O)NC(=O)[C@H](CC(C)C)NC(=O)[C@H](Cc1ccc(O)cc1)NC(=O)[C@H](CCCCN)NC(=O)[C@H](CO)NC(=O)[C@H](Cc1ccc(O)cc1)NC(=O)[C@H](CC(=O)O)NC(=O)[C@H](CO)NC(=O)[C@@H](NC(=O)[C@H](Cc1ccccc1)NC(=O)[C@@H](NC(=O)CNC(=O)[C@H](CCC(N)=O)NC(=O)[C@@H](CO)NC(=O)[C@@H](N)Cc1c[nH]cn1)[C@@H](C)O)[C@@H](C)O)C(C)C)C(=O)N[C@@H](CCCNC(=N)N)C(=O)N[C@@H](C)C(N)=O` [Compound 1], which GLP-1R/GCGR is on record?
A: 0.4

Q: `CC[C@H](C)[C@H](NC(=O)[C@H](Cc1ccccc1)NC(=O)[C@H](CCC(=O)O)NC(=O)[C@H](CCCCNC(=O)CCOCCOCCNC(=O)CCOCCOCCNC(=O)CC[C@H](NC(=O)CCCCCCCCCCCCCCCCC(=O)O)C(=O)O)NC(=O)[C@H](C)NC(=O)[C@H](C)NC(=O)[C@H](CCCCN)NC(=O)[C@H](CCC(=O)O)NC(=O)[C@H](CC(=O)O)NC(=O)[C@H](CC(C)C)NC(=O)[C@H](Cc1ccc(O)cc1)NC(=O)[C@H](CCCCN)NC(=O)[C@H](CO)NC(=O)[C@H](Cc1ccc(O)cc1)NC(=O)[C@H](CC(=O)O)NC(=O)[C@H](CO)NC(=O)[C@@H](NC(=O)[C@H](Cc1ccccc1)NC(=O)[C@@H](NC(=O)CNC(=O)[C@H](CCC(N)=O)NC(=O)[C@@H](CO)NC(=O)[C@@H](N)Cc1c[nH]cn1)[C@@H](C)O)[C@@H](C)O)C(=O)N[C@@H](CCC(=O)O)C(=O)N[C@@H](Cc1c[nH]c2ccccc12)C(=O)N[C@@H](CC(C)C)C(=O)N[C@@H](CC(C)C)C(=O)N[C@@H](CCCNC(=N)N)C(=O)N[C@@H](C)C(N)=O` [Compound 2] (H-H[dS]QGTFTSDYSKYLDEKAAK([PEG2-PEG2-γGlu-C18 diacid])EFIEWLLRA-NH2) was tested. Which GLP-1R/GCGR did it give?
A: 0.1

Q: With `CC(C)C[C@H](NC(=O)[C@H](CC(C)C)NC(=O)[C@H](Cc1c[nH]c2ccccc12)NC(=O)[C@H](CCC(=O)O)NC(=O)[C@@H](NC(=O)[C@H](Cc1ccccc1)NC(=O)[C@H](CC(=O)O)NC(=O)[C@H](Cc1c[nH]cn1)NC(=O)[C@H](C)NC(=O)[C@H](C)NC(=O)[C@H](CCCCNC(=O)CCOCCOCCNC(=O)CCOCCOCCNC(=O)CC[C@H](NC(=O)CCCCCCCCCCCCCCCCC(=O)O)C(=O)O)NC(=O)[C@H](CO)NC(=O)[C@H](CC(=O)O)NC(=O)[C@H](CC(C)C)NC(=O)[C@H](Cc1ccc(O)cc1)NC(=O)[C@H](CCCCN)NC(=O)[C@H](CO)NC(=O)[C@H](Cc1ccc(O)cc1)NC(=O)[C@H](CC(=O)O)NC(=O)[C@H](CO)NC(=O)[C@@H](NC(=O)[C@H](Cc1ccccc1)NC(=O)[C@@H](NC(=O)CNC(=O)[C@H](CCC(N)=O)NC(=O)[C@@H](CO)NC(=O)[C@@H](N)Cc1c[nH]cn1)[C@@H](C)O)[C@@H](C)O)C(C)C)C(=O)N[C@@H](CC(N)=O)C(=O)NCC(=O)NCC(=O)N1CCC[C@H]1C(=O)N[C@@H](CO)C(=O)N[C@@H](CO)C(=O)NCC(=O)N[C@@H](C)C(=O)N1CCC[C@H]1C(=O)N1CCC[C@H]1C(=O)N1CCC[C@H]1C(=O)N[C@@H](CO)C(N)=O` [Compound 3] as the compound, how does the GLP-1R/GCGR read?
A: 0.6

Q: How did the GLP-1R/GCGR turn out when `CCCCCCCCCCCCCCCC(=O)N[C@@H](CCC(=O)NCCOCCOCCC(=O)NCCOCCOCCC(=O)NCCCC[C@H](NC(=O)[C@H](CC(=O)O)NC(=O)[C@H](CC(C)C)NC(=O)[C@H](Cc1ccc(O)cc1)NC(=O)[C@H](CCCCN)NC(=O)[C@H](CO)NC(=O)[C@H](Cc1ccc(O)cc1)NC(=O)[C@H](CC(=O)O)NC(=O)[C@H](CO)NC(=O)[C@@H](NC(=O)[C@H](Cc1ccccc1)NC(=O)[C@@H](NC(=O)CNC(=O)[C@H](CCC(N)=O)NC(=O)[C@@H](CO)NC(=O)[C@@H](N)Cc1c[nH]cn1)[C@@H](C)O)[C@@H](C)O)C(=O)N[C@@H](CCCNC(=N)N)C(=O)N[C@@H](CCCNC(=N)N)C(=O)N[C@@H](C)C(=O)N[C@@H](CCC(N)=O)C(=O)N[C@@H](CC(=O)O)C(=O)N[C@@H](Cc1ccccc1)C(=O)N[C@H](C(=O)N[C@@H](CCC(N)=O)C(=O)N[C@@H](Cc1c[nH]c2ccccc12)C(=O)N[C@@H](CC(C)C)C(=O)N[C@@H](CCSC)C(=O)N[C@@H](CC(N)=O)C(=O)N[C@H](C(=O)NCC(=O)NCC(=O)N1CCC[C@H]1C(=O)N[C@@H](CO)C(=O)N[C@@H](CO)C(=O)NCC(=O)N[C@@H](C)C(=O)N1CCC[C@H]1C(=O)N1CCC[C@H]1C(=O)N1CCC[C@H]1C(=O)N[C@@H](CO)C(N)=O)[C@@H](C)O)C(C)C)C(=O)O` [Compound 10] was run?
A: 3.3

Q: With `CSCC[C@H](NC(=O)[C@H](CC(C)C)NC(=O)[C@H](Cc1c[nH]c2ccccc12)NC(=O)[C@H](CCC(N)=O)NC(=O)[C@@H](NC(=O)[C@H](Cc1ccccc1)NC(=O)[C@H](CC(=O)O)NC(=O)[C@H](CCC(N)=O)NC(=O)[C@H](C)NC(=O)[C@H](CCCNC(=N)N)NC(=O)[C@H](CCCCNC(=O)CCOCCOCCNC(=O)CCOCCOCCNC(=O)CCCCCCCCCCCCCCCCC(=O)O)NC(=O)C(C)(C)NC(=O)[C@H](CC(=O)O)NC(=O)[C@H](CC(C)C)NC(=O)[C@H](Cc1ccc(O)cc1)NC(=O)[C@H](CCCCN)NC(=O)[C@H](CO)NC(=O)[C@H](Cc1ccc(O)cc1)NC(=O)[C@H](CC(=O)O)NC(=O)[C@H](CO)NC(=O)[C@@H](NC(=O)[C@H](Cc1ccccc1)NC(=O)[C@@H](NC(=O)CNC(=O)[C@H](CCC(N)=O)NC(=O)[C@@H](CO)NC(=O)[C@@H](N)Cc1c[nH]cn1)[C@@H](C)O)[C@@H](C)O)C(C)C)C(=O)N[C@@H](CC(N)=O)C(=O)N[C@H](C(=O)NCC(=O)NCC(=O)N1CCC[C@H]1C(=O)N[C@@H](CO)C(=O)N[C@@H](CO)C(=O)NCC(=O)N[C@@H](C)C(=O)N1CCC[C@H]1C(=O)N1CCC[C@H]1C(=O)N1CCC[C@H]1C(=O)N[C@@H](CO)C(N)=O)[C@@H](C)O` [Compound 12] (H-H[dS]QGTFTSDYSKYLD[Aib]K([PEG2-PEG2-C18 diacid])RAQDFVQWLMNTGGPSSGAPPPS-NH2; N-terminus assumed) as the compound, how does the GLP-1R/GCGR read?
A: 2.1

Q: For `CCCCCCCCCCCCCCCC(=O)N[C@@H](CCC(=O)NCCOCCOCCC(=O)NCCOCCOCCC(=O)NCCCC[C@H](NC(=O)C(C)(C)NC(=O)[C@H](CC(=O)O)NC(=O)[C@H](CC(C)C)NC(=O)[C@H](Cc1ccc(O)cc1)NC(=O)[C@H](CCCCN)NC(=O)[C@H](CO)NC(=O)[C@H](Cc1ccc(O)cc1)NC(=O)[C@H](CC(=O)O)NC(=O)[C@H](CO)NC(=O)[C@@H](NC(=O)[C@H](Cc1ccccc1)NC(=O)[C@@H](NC(=O)CNC(=O)[C@H](CCC(N)=O)NC(=O)[C@@H](CO)NC(=O)[C@@H](N)Cc1c[nH]cn1)[C@@H](C)O)[C@@H](C)O)C(=O)N[C@@H](CCCNC(=N)N)C(=O)N[C@@H](C)C(=O)N[C@@H](CCC(N)=O)C(=O)N[C@@H](CC(=O)O)C(=O)N[C@@H](Cc1ccccc1)C(=O)N[C@H](C(=O)N[C@@H](CCC(N)=O)C(=O)N[C@@H](Cc1c[nH]c2ccccc12)C(=O)N[C@@H](CC(C)C)C(=O)N[C@@H](CCSC)C(=O)N[C@@H](CC(N)=O)C(=O)N[C@H](C(=O)NCC(=O)NCC(=O)N1CCC[C@H]1C(=O)N[C@@H](CO)C(=O)N[C@@H](CO)C(=O)NCC(=O)N[C@@H](C)C(=O)N1CCC[C@H]1C(=O)N1CCC[C@H]1C(=O)N1CCC[C@H]1C(=O)N[C@@H](CO)C(N)=O)[C@@H](C)O)C(C)C)C(=O)O` [Compound 13], which GLP-1R/GCGR is on record?
A: 2.8

Q: `CSCC[C@H](NC(=O)[C@H](CC(C)C)NC(=O)[C@H](Cc1c[nH]c2ccccc12)NC(=O)[C@H](CCC(N)=O)NC(=O)[C@@H](NC(=O)[C@H](Cc1ccccc1)NC(=O)[C@H](CC(=O)O)NC(=O)[C@H](CCC(N)=O)NC(=O)[C@H](C)NC(=O)[C@H](CCCNC(=N)N)NC(=O)[C@H](CCCCNC(=O)CCOCCOCCNC(=O)CCOCCOCCNC(=O)CC[C@H](NC(=O)CCCCCCCCCCCCCCCCC(=O)O)C(=O)O)NC(=O)C(C)(C)NC(=O)[C@H](CC(=O)O)NC(=O)[C@H](CC(C)C)NC(=O)[C@H](Cc1ccc(O)cc1)NC(=O)[C@H](CCCCN)NC(=O)[C@H](CO)NC(=O)[C@H](Cc1ccc(O)cc1)NC(=O)[C@H](CC(=O)O)NC(=O)[C@H](CO)NC(=O)[C@@H](NC(=O)[C@H](Cc1ccccc1)NC(=O)[C@@H](NC(=O)CNC(=O)[C@H](CCC(N)=O)NC(=O)[C@@H](CO)NC(=O)[C@@H](N)Cc1c[nH]cn1)[C@@H](C)O)[C@@H](C)O)C(C)C)C(=O)N[C@@H](CC(N)=O)C(=O)N[C@H](C(=O)NCC(=O)NCC(=O)N1CCC[C@H]1C(=O)N[C@@H](CO)C(=O)N[C@@H](CO)C(=O)NCC(=O)N[C@@H](C)C(=O)N1CCC[C@H]1C(=O)N1CCC[C@H]1C(=O)N1CCC[C@H]1C(=O)N[C@@H](CO)C(N)=O)[C@@H](C)O` [Compound 14] was tested. Which GLP-1R/GCGR did it give?
A: 2.1

Q: `CCCCCCCCCCCCCCCC(=O)NCCOCCOCCC(=O)NCCOCCOCCC(=O)NCCCC[C@H](NC(=O)[C@H](CO)NC(=O)[C@H](Cc1ccc(O)cc1)NC(=O)[C@H](CC(=O)O)NC(=O)[C@H](CO)NC(=O)[C@@H](NC(=O)[C@H](Cc1ccccc1)NC(=O)[C@@H](NC(=O)CNC(=O)[C@H](CCC(N)=O)NC(=O)[C@@H](CO)NC(=O)[C@@H](N)Cc1c[nH]cn1)[C@@H](C)O)[C@@H](C)O)C(=O)N[C@@H](CCCCN)C(=O)N[C@@H](CC(C)C)C(=O)N[C@@H](CC(=O)O)C(=O)NC(C)(C)C(=O)N[C@@H](CCCNC(=N)N)C(=O)N[C@@H](CCCNC(=N)N)C(=O)N[C@@H](C)C(=O)N[C@@H](CCC(N)=O)C(=O)N[C@@H](CC(=O)O)C(=O)N[C@@H](Cc1ccccc1)C(=O)N[C@H](C(=O)N[C@@H](CCC(N)=O)C(=O)N[C@@H](Cc1c[nH]c2ccccc12)C(=O)N[C@@H](CC(C)C)C(=O)N[C@@H](CCSC)C(=O)N[C@@H](CC(N)=O)C(=O)N[C@H](C(=O)NCC(=O)NCC(=O)N1CCC[C@H]1C(=O)N[C@@H](CO)C(=O)N[C@@H](CO)C(=O)NCC(=O)N[C@@H](C)C(=O)N1CCC[C@H]1C(=O)N1CCC[C@H]1C(=O)N1CCC[C@H]1C(=O)N[C@@H](CO)C(N)=O)[C@@H](C)O)C(C)C` [Compound 15] was tested. Which GLP-1R/GCGR did it give?
A: 2.5
